# Assay results published in paper PMC6268379, “Antifungal Activity of Homoaconitate and Homoisocitrate Analogs” (Molecules, 2012).
# Like-named read-outs stand apart in the source and are kept apart here.
# How the values were obtained:
# [1] = system: Saccharomyces cerevisiae ATCC 9763; test: Antifungal in vitro activity, microplate serial dilution (modified CLSI M27-A3); assay type: cell-based
# [2] = system: Candida albicans ATCC 10231; test: as above; assay type: cell-based
# [3] = system: Candida glabrata DSM 11226; test: as above; assay type: cell-based; conditions: Nakaseomyces glabratus
# [4] = system: Candida tropicalis KKP 334; test: as above; assay type: cell-based
# [5] = system: Candida lusitaniae DSM 70102; test: as above; assay type: cell-based; conditions: Clavispora lusitaniae
# Candida krusei DSM 6128 = test: as above; assay type: cell-based; conditions: Pichia kudriavzevii
# [6] = molecular target: T1, recombinant homoaconitase (HA) (Candida albicans, UniProt Q5A644); test: Homoaconitase activity, coupled reaction with HIcDH, NADH at 340 nm; assay type: biochemical; conditions: for effect on enzyme activity (homoaconitase): ester derivatives, concentrations up to 10 mM
# T1 construct: made in house
# T1 sequence (Q5A644 1-684): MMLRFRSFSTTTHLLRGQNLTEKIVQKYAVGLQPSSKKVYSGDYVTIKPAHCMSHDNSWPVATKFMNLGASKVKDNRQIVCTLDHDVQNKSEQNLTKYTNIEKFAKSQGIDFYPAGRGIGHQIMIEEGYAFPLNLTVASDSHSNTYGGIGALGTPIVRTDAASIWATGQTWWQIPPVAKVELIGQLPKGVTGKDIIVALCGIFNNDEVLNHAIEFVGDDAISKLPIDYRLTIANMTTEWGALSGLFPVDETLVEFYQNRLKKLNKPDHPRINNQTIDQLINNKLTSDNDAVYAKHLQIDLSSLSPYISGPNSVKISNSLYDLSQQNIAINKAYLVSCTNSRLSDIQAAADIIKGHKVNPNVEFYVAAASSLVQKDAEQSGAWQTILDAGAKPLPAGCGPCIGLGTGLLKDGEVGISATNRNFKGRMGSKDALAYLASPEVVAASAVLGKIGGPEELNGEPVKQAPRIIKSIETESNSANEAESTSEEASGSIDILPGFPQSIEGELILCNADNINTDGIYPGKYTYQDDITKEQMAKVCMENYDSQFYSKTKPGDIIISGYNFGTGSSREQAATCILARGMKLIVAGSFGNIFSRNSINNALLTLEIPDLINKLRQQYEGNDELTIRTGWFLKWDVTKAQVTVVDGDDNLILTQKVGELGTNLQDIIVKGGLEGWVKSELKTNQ
# Protocol: (§1) Recombinant C. albicans homoaconitase (HA) and homoisocitrate dehydrogenase (HIcDH) containing oligoHis N-terminal tags were constructed and purified to near homogeneity as described earlier.
# Activity of homoaconitase (HA) was measured by a coupled reaction with HIcDH by monitoring the reduction of NAD^+ to NADH at 340 nm. Reaction mixtures containing 50 mM Tris-HCl (pH 8.5), 50 mM KCl, 5 mM MgCl2, 20 mM dithiothreitol, 1 mM NAD^+ and 30 μg/mL of His6-HIcDH in a total volume of 0.9 mL were degassed under argon for 10 min, after which 0.05 mL of His6-HAC solution was added to a final concentration of 10 μg/mL. The reaction was initiated with addition of 0.05 mL of 50 mM (R)-homocitrate. The formation of NADH was measured for 30 s at 20 °C to determine initial reaction velocity. The initial rates were determined using a linear portion of the reaction progress curve.
# (§2) The effects of novel compounds on the HA and HIcDH activity was determined by measuring the enzyme activity in standard assay mixtures containing various concentration of an inhibitor (0–10 mM). Inhibitory potential was expressed as IC50 values, i.e., concentrations causing 50% inhibition of enzyme activity in relation to control. All determinations were performed in triplicate.
# [7] = molecular target: recombinant homoisocitrate dehydrogenase (HIcDH) (Candida albicans, UniProt Q5A9D9); test: Homoisocitrate dehydrogenase activity, NADH absorption at 340 nm; assay type: biochemical; conditions: for effect on enzyme activity (homoisocitrate dehydrogenase): ester derivatives, concentrations up to 10 mM; for IC50: recombinant C. albicans His-tagged HIcDH, inhibitor 0–10 mM, mean of three determinations ± SD
# Protocol: as §1
# Reaction catalyzed by homoisocitrate dehydrogenase (HIcDH) was monitored by measuring the NADH absorption at 340 nm. The standard assay mixture contained 10 mM KCl, 5.0 mM MgCl2, 5 mM NAD^+ and 0.1 mM (2R,3S)-homoisocitrate in 50 mM Hepes-NaOH (pH 7.8) buffer. The reaction mixture with all required components except for the enzyme was preincubated for 3 min and the reaction was started by an addition of the recombinant His6-HIcDH (50 μg). The formation of NADH was measured for 30 s at 20 °C to determine initial reaction velocity. The initial rates were determined using a linear portion of the reaction progress curve.
# as §2
# six yeast strains = test: In vitro antifungal activity against six yeast strains; assay type: cell-based; conditions: for MIC values, range over susceptible yeast strains: range stated in text over the tested yeast strains; for antifungal activity: salts, six yeast strains, stated in words
# [8] = ATCC9763, RPMI-1640 pH 7.0, 24 h at 37 °C, at least 80% decrease in turbidity, read-out: MIC S. cerevisiae
# [9] = ATCC10231, RPMI-1640 pH 7.0, 24 h at 37 °C, at least 80% decrease in turbidity, read-out: MIC C. albicans
# [10] = DSM11226, RPMI-1640 pH 7.0, 24 h at 37 °C, at least 80% decrease in turbidity, read-out: MIC C. glabrata
# [11] = KKP334, RPMI-1640 pH 7.0, 24 h at 37 °C, at least 80% decrease in turbidity, read-out: MIC C. tropicalis
# [12] = DSM70102, RPMI-1640 pH 7.0, 24 h at 37 °C, at least 80% decrease in turbidity, read-out: MIC C. lusitaniae
# [13] = DSM6128, RPMI-1640 pH 7.0, 24 h at 37 °C, at least 80% decrease in turbidity, read-out: MIC C. krusei
# [14] = ATCC9763, 24 h, pH 7, read-out: MIC S. cerevisiae
# [15] = ATCC10231, 24 h, pH 7, read-out: MIC C. albicans
# [16] = DSM11226, 24 h, pH 7, read-out: MIC C. glabrata
# [17] = KKP334, 24 h, pH 7, read-out: MIC C. tropicalis
# [18] = DSM70102, 24 h, pH 7, read-out: MIC C. lusitaniae
# [19] = DSM6128, 24 h, pH 7, read-out: MIC C. krusei
# recombinant homoisocitrate dehydrogenase (HIcDH), sequence (Q5A9D9 entry or part of it): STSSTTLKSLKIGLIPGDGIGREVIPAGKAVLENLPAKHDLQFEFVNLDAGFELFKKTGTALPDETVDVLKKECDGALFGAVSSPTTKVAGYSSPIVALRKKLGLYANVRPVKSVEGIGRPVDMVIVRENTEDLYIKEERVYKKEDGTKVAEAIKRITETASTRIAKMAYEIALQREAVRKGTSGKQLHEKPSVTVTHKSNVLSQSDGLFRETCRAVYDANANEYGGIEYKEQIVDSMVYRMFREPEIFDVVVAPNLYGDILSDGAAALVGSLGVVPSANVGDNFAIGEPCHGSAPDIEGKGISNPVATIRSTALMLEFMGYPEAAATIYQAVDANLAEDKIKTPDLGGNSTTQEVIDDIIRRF
SMILES,"MIC [1, 8]","MIC [2, 9]","MIC [3, 10]","MIC [4, 11]","MIC [5, 12]",MIC (Candida krusei DSM 6128; [13]),effect on enzyme activity (homoaconitase) [6],effect on enzyme activity (homoisocitrate dehydrogenase) [7],"MIC values, range over susceptible yeast strains (six yeast strains)","MIC [1, 14]","MIC [2, 15]","MIC [3, 16]","MIC [4, 17]","MIC [5, 18]",MIC (Candida krusei DSM 6128; [19]),IC50 [6],IC50 [7],antifungal activity (six yeast strains),"Km ([7]; recombinant C. albicans HIcDH, read-out: KM of recombinant HIcDH for cofactor)"
"COC(=O)/C=C(\CCC(=O)OC)C(=O)OC [Compound 1a, trimethyl (1E)-but-1-ene-1,2,4-tricarboxylate]",32 µg/mL,16 µg/mL,16 µg/mL,32 µg/mL,16 µg/mL,32 µg/mL,none,none,16 to 32 µg/mL,,,,,,,,,,
"O=C([O-])/C=C(\CCC(=O)[O-])C(=O)[O-].[K+].[K+].[K+] [Compound 2, tripotassium (1E)-but-1-ene-1,2,4-tricarboxylate]",,,,,,,,,,> 512 µg/mL,> 512 µg/mL,> 512 µg/mL,> 512 µg/mL,> 512 µg/mL,> 512 µg/mL,1.58 ± 0.11 mM,> 10 mM,None,
"COC(=O)CCC1(C(=O)OC)OC1C(=O)OC (stereo not drawn) [Compound 3, Trimethyl (1E)1,2-epoxy-butane-1,2,4-tricarboxylate]",> 512 µg/mL,256 µg/mL,128 µg/mL,128 µg/mL,512 µg/mL,> 512 µg/mL,none,none,128 to 512 µg/mL,,,,,,,,,,
"O=C(O)CCC1(C(=O)O)OC1C(=O)O (stereo not drawn) [Compound 4, Tripotassium (1E)1,2-epoxy-butane-1,2,4-tricarboxylate]",> 512 µg/mL,> 512 µg/mL,> 512 µg/mL,> 512 µg/mL,> 512 µg/mL,> 512 µg/mL,,,,,,,,,,5.76 ± 0.34 mM,> 10 mM,None,
"CCC[C@@H](C(=O)OC)[C@H](O)C(=O)OC [Compound 5a, Dimethyl (2S,3R)-2-hydroxy-3-propylsuccinate]",> 512 µg/mL,> 512 µg/mL,> 512 µg/mL,> 512 µg/mL,> 512 µg/mL,> 512 µg/mL,,,,,,,,,,,,,
"CCCC[C@@H](C(=O)OC)[C@H](O)C(=O)OC [Compound 5b, Dimethyl (2S,3R)-2-hydroxy-3-butylsuccinate]",> 512 µg/mL,> 512 µg/mL,> 512 µg/mL,> 512 µg/mL,> 512 µg/mL,> 512 µg/mL,,,,,,,,,,,,,
"C=CC[C@@H](C(=O)OC)[C@H](O)C(=O)OC [Compound 5c, Dimethyl (2S,3R)-2-hydroxy-3-allylsuccinate]",> 512 µg/mL,> 512 µg/mL,> 512 µg/mL,> 512 µg/mL,> 512 µg/mL,> 512 µg/mL,,,,,,,,,,,,,
"CCC[C@@H](C(=O)OC)[C@@H](F)C(=O)OC [Compound 6a, Dimethyl (2R,3S)-2-fluoro-3-propylsuccinate]",> 512 µg/mL,> 512 µg/mL,> 512 µg/mL,> 512 µg/mL,512 µg/mL,> 512 µg/mL,,,,,,,,,,,,,
"CCCC[C@@H](C(=O)OC)[C@@H](F)C(=O)OC [Compound 6b, Dimethyl (2R,3S)-2-fluoro-3-butylsuccinate]",> 512 µg/mL,256 µg/mL,512 µg/mL,128 µg/mL,128 µg/mL,> 512 µg/mL,,,,,,,,,,,,,
"C=CC[C@@H](C(=O)OC)[C@@H](F)C(=O)OC [Compound 6c, Dimethyl (2R,3S)-2-fluoro-3-allylsuccinate]",> 512 µg/mL,256 µg/mL,256 µg/mL,256 µg/mL,> 512 µg/mL,512 µg/mL,,,,,,,,,,,,,
"C=CC[C@@H](C(=O)[O-])[C@@H](F)C(=O)[O-].[K+].[K+] [Compound 7c, Dipotassium (2R,3S)-2-fluoro-3-allylsuccinate]",,,,,,,,,,> 512 µg/mL,> 512 µg/mL,> 512 µg/mL,> 512 µg/mL,512 µg/mL,> 512 µg/mL,> 10 mM,6.78 ± 0.56 mM,None,
"COC(=O)CC[C@@H](C(=O)OC)[C@@H](F)C(=O)OC [Compound 9, trimethyl (1R,2S)-1-fluorobutane-1,2,4-tricarboxylate]",> 512 µg/mL,128 µg/mL,256 µg/mL,64 µg/mL,> 512 µg/mL,256 µg/mL,none,none,,,,,,,,,,,
"OC(Cn1cncn1)(Cn1cncn1)c1ccc(F)cc1F [Flu, Fluconazole, reference compound]",4 µg/mL,4 µg/mL,8 µg/mL,2 µg/mL,4 µg/mL,8 µg/mL,,,,,,,,,,,,,
"NC(=O)c1ccc[n+]([C@@H]2O[C@H](COP(=O)([O-])OP(=O)(O)OC[C@H]3O[C@@H](n4cnc5c(N)ncnc54)[C@H](O)[C@@H]3O)[C@@H](O)[C@H]2O)c1 [NAD^+, reference compound]",,,,,,,,,,,,,,,,,,,1100 µM
